Assays:
Type in all cases: binding
Cq-FABP [1] = molecular target: T1, Cq-FABP (Cherax quadricarinatus, UniProt L0I6Z9); assay: ANS fluorescence intensity titration and equilibrium displacement of ANS by fatty acids; conditions: calculated from equilibrium displacement experiments using the fluorescence intensity of ANS (Eq. 1); read-out: Kd,FA
Experimental: Fluorescence emission spectra were measured at 25°C on a Cary-Eclipse spectrofluorimeter (Varian, CA, USA) equipped with a thermostated cell holder, using solutions (70 µl) placed in microcuvettes (pathlength, 0.3 cm). The binding of non-fluorescent fatty acids (PA, OA, LA, EPA and DHA) to Cq-FABP was measured indirectly by equilibrium displacement experiments using ANS as a fluorescent probe, either by measuring the fluorescence emission of ANS or by measuring the FRET between tryptophan and ANS, resulting in the quenching of donor fluorescence. The excitation wavelength was then set at 296 or 350 nm for tryptophan or ANS, respectively; the slit widths and PMT voltage were adjusted to optimize the fluorescence signal at 25°C. For titration experiments, the fluorescence emission spectrum of tryptophan or ANS was measured and the integrated fluorescence signal of tryptophan (315–360 nm) or ANS (440–600 nm) was calculated. For samples containing high concentrations of ANS, the inner-filter effect was not negligible and was corrected. UV-visible absorption spectra were carried out on a Uvikon XL spectrophotometer.
The equilibrium dissociation constant (Kd,FA) relative to the binding of fatty acids (FA) to Cq-FABP was determined by competition experiments using ANS displacement and linear regression of the following relationship: [drawing 1] (1) where Kd,ANS is the dissociation constant relative to the binding of ANS to the fatty acid binding site, Kd ^app ,ANS is the apparent dissociation constant of ANS obtained in the presence of a given fatty acid concentration.

Cq-FABP [2] = molecular target: T1, Cq-FABP; assay: Time-resolved Trp fluorescence lifetime (single-photon counting) with ANS and PA; conditions: for FRET efficiency: from lifetimes
Experimental: The distribution of fluorescence lifetimes of tryptophan was determined by monitoring the intensity decay, I(t), using the single-photon counting technique [27]–[31]. Briefly, the excitation light pulse source was a Ti:sapphire laser (Mai Tai femtosecond laser, Spectra Physics, Mountain View, CA, USA) associated with a third harmonic generator tuned to 296 nm. The laser frequency was reduced from 80 to 8 MHz using a pulse picker (Spectra Physics). Fluorescence emission was detected by a microchannel plate photomultiplier (Hamamatsu model R3809U-05) through a monochromator (ARC SpectraPro-150) set at 340 nm (Δλ = 15 nm) with the emission polarizer set at the magic angle (54.7°). A time-correlated single-photon counting SPC-430 card (Becker–Hickl, Berlin, Germany) was used for the acquisition. Experiments were performed at 25°C using 5 µM Cq-FABP in buffer C. The average fluorescence lifetime values (τm), as reported in Table 1, were calculated from the lifetime distributions recovered by the maximum entropy method, [29], [32]. For example, Cq-FABP alone was characterized by three fluorescence lifetimes (τ1 = 0.6 ns (6%), τ2 = 2.67 ns (53%), τ3 = 3.89 (41%); τm = 3.04 ns).

Cq-FABP [3] = molecular target: T1, Cq-FABP; assay: cis-Parinaric acid fluorescence intensity titration and competitive displacement; conditions: calculated from the IC50 values (Eq. 2) using the fluorescence intensity of cis-parinaric acid; 7 µM CPA, 5 µM Cq-FABP; read-out: Kd,FA
Text: Cis-parinaric acid and DAUDA were characterized by fluorescence emission in the 380–500 nm region (λmax,em: 410 nm) and in the 480–650 nm region (λmax,em: 540 nm), respectively (excitation wavelengths were set at 320 or 335 nm for cis-parinaric acid or DAUDA, respectively). The fluorescence intensity enhancement upon binding to Cq-FABP was monitored on a Cary-Eclipse spectrofluorimeter as indicated above. All the fluorescence emission intensities were corrected for the inner-filter effect. The emission intensity of a given fluorophore in the presence of Cq-FABP was also systematically corrected for the emission intensity of the free fluorophore. The calculation of Kd,FA was performed by measuring the IC50 value (inhibition concentration 50%) characterizing each non-fluorescent FA. As DAUDA poorly binds to Cq-FABP (see results section), only cis-parinaric acid (CPA) was used for measuring IC50 values. Titration and equilibrium displacement experiments using CPA were performed in buffer C (supplemented with 10% DMSO (v/v)). For the determination of IC50 values, the number of complexes corresponding to [CPA] = 7 µM and [Cq-FABP] = 5 µM was varied by increasing the concentration of non-fluorescent FA. The IC50 value corresponds to the concentration of non-fluorescent FA that displaces 50% of CPA from the fatty acid binding site of Cq-FABP and is related to Kd,FA through the Cheng-Prusoff relationship: [drawing 2] (2)

[4] = 5 µM Cq-FABP + 50 µM ANS + 70 µM PA
[5] = 5 µM Cq-FABP + 200 µM ANS + 70 µM PA

T1 sequence (L0I6Z9 entry or part of it): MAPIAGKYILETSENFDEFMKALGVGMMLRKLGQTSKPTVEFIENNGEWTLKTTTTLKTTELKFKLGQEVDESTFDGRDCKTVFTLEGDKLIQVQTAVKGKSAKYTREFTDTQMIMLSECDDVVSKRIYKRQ

Kd (Cq-FABP [1]): 1100 ± 300 nM
Average fluorescence Lifetime, τm (Cq-FABP [2]; [4]): 2.77 ns
FRET efficiency (Cq-FABP [2]; [4]): 8.9%
Average fluorescence Lifetime, τm (Cq-FABP [2]; 5 µM Cq-FABP + 70 µM PA): 2.96 ns
Average fluorescence Lifetime, τm (Cq-FABP [2]; [5]): 2.34 ns
FRET efficiency (Cq-FABP [2]; [5]): 23%
Kd (Cq-FABP [3]): 1800 ± 400 nM
Compound: CCCCCCCCCCCCCCCC(=O)O [PA, Palmitic acid]
